Columns and labels:
[1] = test system: MOLT human acute lymphoblastic leukemia (ALL) tumor cells; test: ALL mouse model, IV-inoculated MOLT human ALL tumor cells in NOD-SCID mice, survival; format: in vivo; conditions: vehicle 70 days
Description: FIG. 6. Shown is a survival curve for an in vivo ALL (Acute Lymphocytic Leukemia) MOLT-4 (CD3 […]) xenograft tumor NSG mouse model after up to 160 days of treatment with Compound 2 vs. vs. mice treated with vehicle, Compound 1, doxorubicin (Dox) and cytarabine (Ara-C). Under various dosing regimens.
Male NOD-SCID mice were inoculated with MOLT human acute lymphoblastic leukemia (ALL) tumor cells from ATCC (1×10^7 cells in 200 μL PBS) by intravenous (IV) injection of 0.2 ml/mouse. Seven days after tumor inoculation, mice were randomized into seven groups of five mice per group, and each group was dosed as follows: (Group 1) orally administered vehicle of 0.5% HPMC and 0.1% Tween 80 daily, (Group 2) orally administered 10 mg/kg Compound 1 twice per week, (Group 3) orally administered 10 mg/kg Compound 2 daily, (Group 4) administered 1 mg/kg doxorubicin by intraperitoneal (IP) injection once per week, (Group 5) administered 0.5 mg/kg doxorubicin by IP injection once per week, (Group 6) administered 50 mg/kg Ara-C twice per week by IP injection, and (Group 7) administered 70 mg/kg Ara-C by IP injection once per week.

P31-Fujioka cell line = P31-Fujioka cell line xenograft survival in immunodeficient NRG-SGM3 mice; format: in vivo, mouse; conditions: oral Compound 1 from ten days after injection, up to 34 days of treatment, n=5 mice per group, P<0.002
Description: FIG. 1. Shown is a survival curve for an in vivo P31-Fujioka cell line xenograft tumor […] mouse model after up to 34 days of treatment with Compound 1 vs. vehicle treated animals (n=5 mice per group, *P<0.002).
Immunodeficient mice (NRG-SGM3) were injected with the P31-Fujioka cell line. Ten days after injection, engraftment of P31 cells in mice was confirmed by flow-cytometric assessment of the human CD45 marker (data not shown). One cohort of mice was orally administered Compound 1 and an age and engraftment matched hohort was administered vehicle control.

[2] = test system: MOLM13 human AML tumor cells; test: AML mouse model, IV-inoculated human AML tumor cells in NOD-SCID mice, survival; format: in vivo
Description: FIG. 3. Shown is a survival curve for an in vivo AML NSG mouse model after up to 75 days of treatment with Compound 1 vs. vehicle treated mice (n=5 in vehicle group and n=2 in Compound 1 group).
FIG. 5. Shown is a survival curve for an in vivo AML NSG mouse model after up to 80 days of treatment with a combination of Compound 1 and Compound 2 vs. mice treated with vehicle, Compound 1 alone and Compound 2 alone
The following study was conducted in a mouse model of acute myeloid leukemia (AML) based on intravenous (IV) injection of human […] into male non-obese diabetic (NOD) severe combined immunodeficiency (SID) mice. MOLT-4 cells are CD3 positive. The NOD-SCID mice were obtained from Jackson Laboratory, Bar Harbor Me.
Male NOD-SCID mice were inoculated with MOLM13 human AML tumor cells from ATCC (5×10^6 cells in 200 μL PBS) by intravenous (IV) injection of 0.2 ml/mouse. Three days after tumor inoculation, mice were randomized into four groups of five mice per group, and each group was dosed as follows once each day: (Group 1) orally administered vehicle (0.5% HPMC), (Group 2) orally administered 12.5 mg/kg of Compound 1 in HPMC, (Group 3) orally administered 10 mg/kg of Compound 2 in HPMC, and (Group 4) orally administered a combination of 12.5 mg/kg of Compound 1 and 10 mg/kg of Compound 2 in HPMC for up to 75 days.

[3] = test system: microtubule polymerization; test: Mechanistic studies of microtubule polymerization; format: biochemical
Description: In addition, Compound 1 combines additively or synergistically with standard clinical regimens, yielding potent and durable cancer regression.

CALM-AF10-mediated AML = CALM-AF10-mediated AML leukemogenesis in mouse and human models; conditions: in vitro and in vivo
p53 mutant mediated AML = conditions: cited from earlier work
leukemia cell growth = conditions: mouse xenograft models; cited from earlier work

## COc1cccc2c1C(=O)c1c(O)c3c(c(O)c1C2=O)C[C@@](O)(C(=O)CO)C[C@@H]3O[C@H]1C[C@H](N)[C@H](O)[C@H](C)O1 [doxorubicin]
[1]; Group 4, 1 mg/kg IP once per week
  maximum number of days of survival: 40 days
[1]; Group 5, 0.5 mg/kg IP once per week
  maximum number of days of survival: 40 days

## Cc1nc2ccc(F)cc2n1-c1nc(N)c(F)c(Nc2ccc(C(F)(F)F)cc2)n1 [Compound 1, 5-fluoro-2-(6-fluoro-2-methyl-1H-benzo[d]imidazol-1-yl)-N^4-[4-(trifluoromethyl)phenyl]pyrimidine-4,6-diamine]
P31-Fujioka cell line
  latency of disease (survival curve) vs vehicle control: significantly delayed the latency of disease
[2]; 12.5 mg/kg Compound 1 orally once each day
  survival vs mice administered Compound 2 alone: survived significantly longer
[2]; 12.5 mg/kg orally once each day in HPMC, up to 75 days
  survival (prolongation of life) vs vehicle: significant prolongation of life
[1]; Group 2, 10 mg/kg orally twice per week
  maximum number of days of survival: 65 days
[3]
  microtubule polymerization: inhibit microtubule polymerization
CALM-AF10-mediated AML
  leukemogenesis: impairs leukemogenesis in vitro and in vivo
p53 mutant mediated AML; p53 mutant mediated AML
  MCL-1 expression: reduced MCL-1 expression
p53 mutant mediated AML; patient-derived CD34+CD38low/- stem/progenitor cells
  induction of apoptosis: Apoptosis was induced in a p53-independent manner
Leukemia cell growth
  in vivo anti-leukemia activity: inhibited leukemia cell growth in vivo while sparing normal hematopoietic cells

## Nc1ccn([C@@H]2O[C@H](CO)[C@@H](O)[C@@H]2O)c(=O)n1 [Ara-C, cytarabine]
[1]; Group 6, 50 mg/kg IP twice per week
  maximum number of days of survival: 65 days
[1]; Group 7, 70 mg/kg IP once per week
  maximum number of days of survival: 70 days

## COc1ccc([C@H]2c3[nH]c4ccc(Cl)cc4c3CCN2C(=O)Oc2ccc(Cl)cc2)cc1 [Compound 2, 4-chlorophenyl (S)-6-chloro-1-(4-methoxyphenyl)-1,3,4,9-tetrahydro-2H-pyrido[3,4-b]indole-2-carboxylate]
[1]; Group 3, 10 mg/kg orally daily
  maximum number of days of survival: 160 days

— US20220096473A1, “METHOD FOR TREATING AN ACUTE MYELOID LEUKEMIA” (PTC THERAPEUTICS, INC., priority 2019, published 2022)
